{
  "source": "patent US20200017495A1",
  "about": "“NOVEL HETEROCYCLIC COMPOUNDS AND THEIR USE IN PREVENTING OR TREATING BACTERIAL INFECTIONS” (priority 2017, published 2020)",
  "assay_in_all_cases": "MIC of compounds alone and combined with antibacterials, broth microdilution (CLSI)",
  "assay_type_in_all_cases": "cell-based",
  "key": {"[1]": {"system": "Klebsiella pneumoniae (KPN) isolates", "settings": "Klebsiella pneumoniae, read-out: MIC", "method_in_brief": "(§1)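 Antibacterial MICs in combination were determined at every compound concentration tested, alongside compound MICs alone. Bacteria grew in cation-adjusted Mueller-Hinton broth starting from 5.10^5 CFU/mL, incubated at 35° C for 16-20 h, and endpoints were the lowest concentrations with no visible growth.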"}, "[2]": {"system": "Providencia rettgeri (PRE) isolates", "settings": "Providencia rettgeri, read-out: MIC", "method_in_brief": "as §1"}, "[3]": {"system": "Klebsiella oxytoca (KOX) isolates", "settings": "Klebsiella oxytoca, alone, read-out: MIC", "method_in_brief": "as §1"}, "[4]": {"system": "Morganella morganii (MMO) isolates", "settings": "Morganella morganii, read-out: MIC", "method_in_brief": "as §1"}, "[5]": {"system": "Citrobacter freundii (CFR) isolates", "settings": "Citrobacter freundii", "method_in_brief": "as §1"}},
  "note": "Read-outs that look alike come from different tables or passages of the source.",
  "data": [
    {"smiles": "O=C1N2CC(c3ncco3)=CC(C2)N1OC(F)(F)C(=O)[O-].[Li+]", "note": "(centres unmarked) [AF2]", "values": [
      {"measurement": "MIC", "setting": "[1]; BAA1898, KPN BAA-1898, alone", "value": 8, "unit": "mg/L"},
      {"measurement": "MIC", "setting": "[1]; KPN 6299, alone", "value": 16, "unit": "mg/L"},
      {"measurement": "MIC", "setting": "[1]; KPN 110376, alone", "value": 8, "unit": "mg/L"},
      {"measurement": "MIC", "setting": "[1]; KPN 121206, alone", "value": 16, "unit": "mg/L"},
      {"measurement": "MIC", "setting": "[1]; KPN 131119, alone", "value": 8, "unit": "mg/L"},
      {"measurement": "MIC", "setting": "[1]; KPN 140513, alone", "value": 32, "unit": "mg/L"},
      {"measurement": "MIC", "setting": "[1]; KPN 160143, alone", "value": 8, "unit": "mg/L"},
      {"measurement": "MIC", "setting": "[1]; KPN 190128, alone", "value": 16, "unit": "mg/L"},
      {"measurement": "MIC", "setting": "[1]; KPN 190270, alone", "value": 16, "unit": "mg/L"},
      {"measurement": "MIC", "setting": "[1]; KPN 190425, alone", "value": 16, "unit": "mg/L"},
      {"measurement": "MIC", "setting": "[1]; KPN 190551, alone", "value": 4, "unit": "mg/L"},
      {"measurement": "MIC", "setting": "[1]; KPN 200047, alone", "value": 4, "unit": "mg/L"},
      {"measurement": "MIC", "setting": "[1]; KPN 200327, alone", "value": 4, "unit": "mg/L"},
      {"measurement": "MIC", "setting": "[1]; KPN 260251, alone", "value": 16, "unit": "mg/L"},
      {"measurement": "MIC", "setting": "[1]; KPN 260252, alone", "value": 16, "unit": "mg/L"},
      {"measurement": "MIC", "setting": "[1]; KPN 260376, alone", "value": 4, "unit": "mg/L"},
      {"measurement": "MIC", "setting": "[1]; KPN 270077, alone", "value": "> 32", "unit": "mg/L"},
      {"measurement": "MIC", "setting": "[1]; KPN 700603, alone", "value": 32, "unit": "mg/L"},
      {"measurement": "MIC", "setting": "[1]; KPN ARA, alone", "value": 8, "unit": "mg/L"},
      {"measurement": "MIC", "setting": "[1]; KPN LIB, alone", "value": 8, "unit": "mg/L"},
      {"measurement": "MIC", "setting": "[1]; KPN UFR22_O, alone", "value": 8, "unit": "mg/L"},
      {"measurement": "MIC", "setting": "[1]; KPN UFR23, alone", "value": 16, "unit": "mg/L"},
      {"measurement": "MIC", "setting": "[1]; KPN UFR24, alone", "value": 16, "unit": "mg/L"},
      {"measurement": "MIC", "setting": "[1]; KPN UFR25, alone", "value": 8, "unit": "mg/L"},
      {"measurement": "MIC", "setting": "[1]; KPN UFR27, alone", "value": 16, "unit": "mg/L"},
      {"measurement": "MIC", "setting": "[1]; KPN UFR43, alone", "value": 8, "unit": "mg/L"},
      {"measurement": "MIC", "setting": "[1]; KPN UFR46, alone", "value": 32, "unit": "mg/L"},
      {"measurement": "MIC", "setting": "[1]; KPN UFR53, alone", "value": 16, "unit": "mg/L"},
      {"measurement": "MIC", "setting": "[1]; KPN UFR68, alone", "value": 16, "unit": "mg/L"},
      {"measurement": "MIC", "setting": "[1]; KPN UFR76, alone", "value": "> 32", "unit": "mg/L"},
      {"measurement": "MIC", "setting": "[1]; KPN UFR77, alone", "value": 8, "unit": "mg/L"},
      {"measurement": "MIC", "setting": "[1]; KPN UFR78, alone", "value": 32, "unit": "mg/L"},
      {"measurement": "MIC", "setting": "[1]; KPN UFR79, alone", "value": 16, "unit": "mg/L"},
      {"measurement": "MIC", "setting": "[1]; KPN UFR80, alone", "value": 16, "unit": "mg/L"},
      {"measurement": "MIC", "setting": "[1]; KPN UFR81, alone", "value": 16, "unit": "mg/L"},
      {"measurement": "MIC", "setting": "[1]; KPN UFR215, alone", "value": 32, "unit": "mg/L"},
      {"measurement": "MIC", "setting": "[1]; KPN UFR216, alone", "value": 8, "unit": "mg/L"},
      {"measurement": "MIC", "setting": "[1]; KPN UFR217, alone", "value": 8, "unit": "mg/L"},
      {"measurement": "MIC", "setting": "[1]; KPN UFR218, alone", "value": 4, "unit": "mg/L"},
      {"measurement": "MIC", "setting": "[1]; KPN UFR222, alone", "value": 8, "unit": "mg/L"},
      {"measurement": "MIC", "setting": "[1]; KPN UFR227O, alone", "value": "> 32", "unit": "mg/L"},
      {"measurement": "MIC", "setting": "[1]; strain KPN 140347, compound alone", "value": 32, "unit": "mg/L"},
      {"measurement": "MIC", "setting": "[1]; strain KPN UFR162, compound alone", "value": 16, "unit": "mg/L"},
      {"measurement": "MIC", "setting": "[1]; strain KPN UFR163, compound alone", "value": 16, "unit": "mg/L"},
      {"measurement": "MIC", "setting": "[1]; strain KPN UFR164, compound alone", "value": 16, "unit": "mg/L"},
      {"measurement": "MIC", "setting": "[1]; strain KPN UFR165, compound alone", "value": 16, "unit": "mg/L"},
      {"measurement": "MIC", "setting": "[1]; strain KPN UFR166, compound alone", "value": 32, "unit": "mg/L"},
      {"measurement": "MIC", "setting": "[1]; strain KPN UFR167, compound alone", "value": "> 32", "unit": "mg/L"},
      {"measurement": "MIC", "setting": "[1]; strain KPN UFR168, compound alone", "value": 16, "unit": "mg/L"},
      {"measurement": "MIC", "setting": "[1]; strain KPN UFR169, compound alone", "value": "> 32", "unit": "mg/L"},
      {"measurement": "MIC", "setting": "[1]; strain KPN UFR170, compound alone", "value": 16, "unit": "mg/L"},
      {"measurement": "MIC", "setting": "[1]; strain KPN UFR171, compound alone", "value": 8, "unit": "mg/L"},
      {"measurement": "MIC", "setting": "[1]; strain KPN UFR172, compound alone", "value": 8, "unit": "mg/L"},
      {"measurement": "MIC", "setting": "[1]; strain KPN UFR229O, compound alone", "value": 16, "unit": "mg/L"},
      {"measurement": "MIC", "setting": "[2]; PRE UFR99, alone", "value": 16, "unit": "mg/L"},
      {"measurement": "MIC", "setting": "[2]; strain PRE UFR96, compound alone", "value": 8, "unit": "mg/L"},
      {"measurement": "MIC", "setting": "[2]; strain PRE UFR97, compound alone", "value": "> 32", "unit": "mg/L"},
      {"measurement": "MIC", "setting": "[2]; strain PRE UFR236, compound alone", "value": 32, "unit": "mg/L"},
      {"measurement": "MIC", "setting": "[3]; KOX UFR21", "value": 16, "unit": "mg/L"},
      {"measurement": "MIC", "setting": "[3]; KOX UFR173", "value": 16, "unit": "mg/L"},
      {"measurement": "MIC", "setting": "[3]; KOX UFR223", "value": 8, "unit": "mg/L"},
      {"measurement": "MIC", "setting": "[3]; KOX UFR224", "value": 8, "unit": "mg/L"},
      {"measurement": "MIC", "setting": "[4]; MMO 200321, alone", "value": 32, "unit": "mg/L"},
      {"measurement": "MIC", "setting": "[4]; MMO UFR144, alone", "value": "> 32", "unit": "mg/L"},
      {"measurement": "MIC", "setting": "[4]; MMO UFR240, alone", "value": "> 32", "unit": "mg/L"},
      {"measurement": "MIC", "setting": "[4]; MMO UFR241, alone", "value": "> 32", "unit": "mg/L"},
      {"measurement": "MIC", "setting": "[4]; MMO UFR242, alone", "value": "> 32", "unit": "mg/L"},
      {"measurement": "MIC", "setting": "[4]; MMO UFR243, alone", "value": "> 32", "unit": "mg/L"},
      {"measurement": "MIC", "setting": "[4]; MMO UFR244, alone", "value": "> 32", "unit": "mg/L"},
      {"measurement": "MIC", "setting": "[4]; MMO UFR245, alone", "value": "> 32", "unit": "mg/L"},
      {"measurement": "MIC", "setting": "[4]; MMO UFR246, alone", "value": "> 32", "unit": "mg/L"},
      {"measurement": "MIC", "setting": "[4]; MMO UFR247, alone", "value": 32, "unit": "mg/L"},
      {"measurement": "MIC", "setting": "[4]; strain MMO UFR145, compound alone", "value": "> 32", "unit": "mg/L"},
      {"measurement": "MIC", "setting": "[5]; CFR UFR10, alone", "value": 4, "unit": "mg/L"},
      {"measurement": "MIC", "setting": "[5]; CFR UFR11, alone", "value": "> 32", "unit": "mg/L"},
      {"measurement": "MIC", "setting": "[5]; CFR UFR37, alone", "value": 4, "unit": "mg/L"},
      {"measurement": "MIC", "setting": "[5]; CFR UFR83, alone", "value": "> 32", "unit": "mg/L"},
      {"measurement": "MIC", "setting": "[5]; CFR UFR146, alone", "value": 32, "unit": "mg/L"},
      {"measurement": "MIC", "setting": "[5]; CFR UFR248, alone", "value": 8, "unit": "mg/L"},
      {"measurement": "MIC", "setting": "[5]; strain CFR UFR147, compound alone", "value": 8, "unit": "mg/L"},
      {"measurement": "MIC", "setting": "[5]; strain CFR UFR148, compound alone", "value": 8, "unit": "mg/L"},
      {"measurement": "MIC", "setting": "[5]; strain CFR UFR251, compound alone, read-out: MIC", "value": 16, "unit": "mg/L"},
      {"measurement": "MIC", "setting": "[5]; strain CFR UFR254, compound alone", "value": 4, "unit": "mg/L"}
    ]}
  ]
}
